Results from PubChem BioAssay AID1117361 (Southern Research Institute, 2015).

Target: Protein Tat (Human immunodeficiency virus type 1 group M subtype B (isolate HXB2)) (UniProt P04608)
Experiment: HIV-1 Tat–TAR interaction blockers – biochemical, fluorescence polarization, FAM-labeled TAR RNA, counter-screen for Vif-APOBEC3G degradation inhibitor project, dose response (AID 1117361)
Conditions: Tat-TAR RNA binding

Protein Tat (Human immunodeficiency virus type 1 group M subtype B (isolate HXB2)), sequence (P04608 whole entry, looked up): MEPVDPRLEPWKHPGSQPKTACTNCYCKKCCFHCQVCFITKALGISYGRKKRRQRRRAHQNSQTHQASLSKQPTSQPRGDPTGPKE

Structure (SMILES) | IC50 [µM]
Cc1ccc([C@@H]2C3COCC=C3C(C#N)=C(N)C2(C#N)C#N)o1 (some centres not stated) | 4.05
O=C1CCC/C1=C/Nc1ccc2c(c1)OCO2 | 19.7
O=C1CC(=O)N(Cc2ccco2)C(=O)N1 | 14.6
CCC1S/C(=C(\C#N)C(=O)NCc2ccco2)N(c2ccc(F)cc2)C1=O (configuration not stated) | 14.9
Cc1cc(C)c(S(=O)(=O)N2CCCCC2)c(C)c1N(C)S(=O)(=O)c1ccc(Cl)cc1 | 29
Cc1cc(-c2nc3c4c5c(sc4[nH]c(=O)n3n2)CCC5)c(C)o1 | 3.66
Cc1ccc(C(=O)N/N=C\c2cc(Br)c(Br)o2)cn1 | 2.34
Cc1cc(=O)c2c(O)c(O)ccc2o1 | 47.4
Cc1ccc(-n2nc(C)c(C3C(C#N)=C(N)Oc4c3c(=O)oc3ccccc43)c2Cl)cc1 (configuration not stated) | 25.2
CNc1ccc(Br)cc(C(=O)/C=C/c2cccc(OC)c2OC)c1=O | 8
O=C1CCCC/C1=C/Nc1ccc2c(c1)OCO2 | 41.3
CCOc1cc(N2CCOCC2)c(OCC)cc1NC(C)C(=O)N1CCN(CC)CC1 (configuration not stated) | 78.8
O=C(/C=C/c1ccco1)N(c1ccccn1)c1ccccn1 | 7.9
CNc1ccc(Br)cc(C(=O)/C=C/c2ccc(OC)cc2)c1=O | 9.15
O=C1CC(c2ccco2)CC(O)=C1C=Nc1cc(Cl)cc(Cl)c1 (configuration not stated) | 9.58
Clc1ccc(OCc2nn3c(-c4ccco4)nnc3s2)c(Cl)c1 | 51.5
O=C(N/N=C/C=C\c1ccco1)c1cccnc1 | 3.91
CCOc1cccc(CNc2ccc(O)cc2)c1OCc1ccccc1Cl | 63
O=[N+]([O-])c1cc2oc3c(c2c(C=NCc2ccncc2)c1O)CCCC3 | 13.4
Cc1cc(C(=O)O)ccc1-n1c(C)ccc1C | 5.78
C=CCn1c(C)c(C(C)=O)c(N2CCN(c3ccccc3)CC2)nc1=S | 7.51
CC[C@H](C)/C=C(C)/C=C/C1=CC2=CC(=O)[C@]3(C)OC(=O)[C@@H](C(C)=O)[C@@H]3C2=CO1 | 14.4
Nc1ccc(N(CCO)CCO)cc1 | 9.62
COc1ccc(NC(=O)c2cc(-c3ccco3)nc3ccccc23)cc1S(=O)(=O)N1CCOCC1 | 19.3

Structure (SMILES) | IC50 [µM]
Cc1cc(C)nc(N/N=C/C2=C(N3CCOCC3)C(=C\c3ccc(Cl)cc3)/CC2)n1 | 72.4
CN(CCc1ccccc1)C(=O)c1ccc(NC(=O)Cc2ccc(NC(=O)C3CCN(C(=O)CCc4ccccc4)CC3)cc2)cc1 | 44.3
c1cnc(N2CCN(c3cnccn3)CC2)nc1 | 71.9
COc1ccc(NC(=O)c2cccc(S(=O)(=O)Nc3ccc(Br)cc3)c2)cn1 | 2.15
COc1ccc(O)c(N)c1 | 5.5
O=C(CCCN1C(=O)/C(=C\c2ccco2)SC1=S)Nc1ccc2ccccc2c1 | 48.3
COc1ccc2c(c1)C(=O)c1ccccc1CO2 | 46.3
COc1ccc2c(c1)n([O-])c1c([n+]2=O)CCC1 | 52.1
CCn1cc(CNC(=O)c2ccc(Cl)c([N+](=O)[O-])c2)c(C)n1 | 43
Clc1ccccc1N=Nc1ccccn1 | 35
O=C(O)c1cc2cccc(S(=O)(=O)N3CCOCC3)c2cc1O | 80.3
CCCCN1C(=O)/C(=C/C=C/c2ccco2)C(=O)NC1=S | 21.7
O=[n+]1c2c(n([O-])c3cc(F)c(F)cc31)CCCC2 | 11.1
O=C(NCc1ccccn1)c1ccc2nc(-c3ccco3)c(-c3ccco3)nc2c1 | 4.75
CN1c2ccsc2C(O)=C(C(=S)Nc2ccc(F)c(Cl)c2)S1(=O)=O | 5.38
O=[N+]([O-])c1cc(CN2CCCC2)c2cccnc2c1O | 8.94
Cn1cnnc1SC/C(O)=C(\C#N)c1nc2ccccc2[nH]1 | 37.4
O=C(O)c1cc(N2N=C(C(F)(F)F)/C(=C/C=C/c3ccco3)C2=O)ccc1Cl | 0.616
CC(=O)c1ccc2c(c1)C1C=CCC1C(C(=O)O)N2 (configuration not stated) | 2.47
COC(=O)c1ccc(CC(=O)c2c(C)cc(O)cc2O)o1 | 11.2
CN(C)c1cc(Cl)c2nonc2c1N | 87.2
CCc1cc(=O)n2[nH]c(C)c(-c3ccccc3OC)c2n1 | 12.7
O=C(O)c1[nH]c2ccc(Cl)cc2c1CC(=O)N1CCN(C(=O)c2ccco2)CC1 | 69.5
